Measured values published in patent US5212171A, “Pesticidal heterocyclic compounds” (priority 1990, dated 1993).

test system: Spodoptera littoralis; test: whole plant or invertebrate; type: in vivo, Spodoptera littoralis (Egyptian cotton leafworm); conditions: 168 h, initial test concentration of 0.1% w (1000 ppm), 7 days, read-out: mortality grade S.l.
Protocol: (§1) Insecticidal activity of compounds of general formula I was assessed against the following pests: […]
Spodoptera littoralis (Egyptian cotton leafworm)
The test methods employed for each species appear below. In each test, unless otherwise stated, solutions or suspensions of test compound were made up over a range of concentrations in water (initially 0.1% w) containing 10%w acetone and 0.025% w "TRITON X-100" (trade mark) surface active agent (the condensation product of ethylene oxide with an alkyl phenol). These solutions were sprayed at a rate equivalent to 340 liters per hectare (3.4×10^-5 m^3 /m^2) onto Petri dishes containing either test species per se or diet onto which test species were subsequently introduced, as indicated. In some assays leaf discs infested with test species were sprayed whilst other assays involved the spraying of plants which were infested subsequently with test species after the spray solution had dried. […]
Mortality assessments were made as indicated below, in terms of percentage mortality figures. In each test a LC50 (the dosage of active material required to kill half of the test species) for the compound was calculated from the mortality figures and compared with the corresponding LC50 for a standard insecticide, ethyl parathion, in the same test. The results are expressed as toxicity indices thus: [formula] […]

| Structure (SMILES) | mortality at 1000 µg/mL [%] |
| --- | --- |
| O=C(NC(=O)c1c(F)cccc1F)Nc1ccc2c(c1)COC(c1ccc(F)cc1F)S2 (centres unmarked) [Example 108] | 70 to 100 |
| O=C(NC(=O)c1c(F)cccc1F)Nc1ccc2c(c1)COC(c1c(Cl)cccc1Cl)S2 (centres unmarked) [Example 113] | 70 to 100 |

test system: Trialeurodes vaporariorum; test: whole plant or invertebrate; type: in vivo, Trialeurodes vaporariorum (greenhouse whitefly); conditions: 144 h, initial test concentration of 0.1% w (1000 ppm), 6 days, read-out: mortality grade T.v.
Protocol: as §1
Trialeurodes vaporariorum (greenhouse whitefly)
The test methods employed for each species appear below. In each test, unless otherwise stated, solutions or suspensions of test compound were made up over a range of concentrations in water (initially 0.1% w) containing 10%w acetone and 0.025% w "TRITON X-100" (trade mark) surface active agent (the condensation product of ethylene oxide with an alkyl phenol). These solutions were sprayed at a rate equivalent to 340 liters per hectare (3.4×10^-5 m^3 /m^2) onto Petri dishes containing either test species per se or diet onto which test species were subsequently introduced, as indicated. In some assays leaf discs infested with test species were sprayed whilst other assays involved the spraying of plants which were infested subsequently with test species after the spray solution had dried. The tests were all conducted under normal insectary conditions (23° C.±2° C., fluctuating humidity and light).
Mortality assessments were made as indicated below, in terms of percentage mortality figures. In each test a LC50 (the dosage of active material required to kill half of the test species) for the compound was calculated from the mortality figures and compared with the corresponding LC50 for a standard insecticide, ethyl parathion, in the same test. The results are expressed as toxicity indices thus: [formula] (i) Spodoptera littoralis (7 day)(Sl 7D) Test solutions were sprayed as indicated above onto Petri dishes containing a nutritious diet for Egyptian cotton leafworm larvae. When the spray deposit had dried, each dish was infested with ten 2nd instar larvae. Mortality assessments were made 7 days after spraying.
(iii) Trialeurodes vaporariorum (Tv)
French bean plants (Phaseolus vulgaris) with two fully expanded leaves were placed in a breeding culture of T.vaporariorum, also on French bean plants, which were then disturbed to ensure resettlement on the introduced plants. During the subsequent 24 hour period, eggs were deposited and kept at 27° C., with 14 hours photoperiod. All adult whiteflies were then carefully removed, leaving egg samples of a known age. After eight days the majority of eggs had hatched. Leaf discs containing the newly hatched nymphs were then cut from the leaves and transferred to moist filter paper. The discs were examined under a low-powered microscope to determine the exact number of 1st instar nymphs per disc and to remove any unhatched eggs. On average, 70-100 nymphs were found per disc. The discs were transferred into Petri dishes and sprayed with test solutions as described above. After 6 days percentage mortalities were assessed.

| Structure (SMILES) | mortality at 1000 µg/mL [%] |
| --- | --- |
| O=C(NC(=O)c1c(F)cccc1F)Nc1ccc2c(c1)COC(c1ccccc1Cl)O2 (centres unmarked) [Example 80] | 40 to 69 |
| O=C(NC(=O)c1c(F)cccc1F)Nc1ccc2c(c1)COC(c1ccc(Cl)cc1)O2 (centres unmarked) [Example 81] | 40 to 69 |
| O=C(NC(=O)c1c(F)cccc1F)Nc1ccc2c(c1)COC(c1ccc(Cl)c(Cl)c1)O2 (centres unmarked) [Example 83] | 40 to 69 |
| O=C(NC(=O)c1c(F)cccc1F)Nc1ccc2c(c1)COC(c1c(Cl)cccc1Cl)O2 (centres unmarked) [Example 84] | 40 to 69 |
| O=C(NC(=O)c1c(F)cccc1F)Nc1ccc2c(c1)COC(c1ccccc1Br)O2 (centres unmarked) [Example 87] | 40 to 69 |
| O=C(NC(=O)c1c(F)cccc1F)Nc1ccc2c(c1)COC(c1ccc(C(F)(F)F)cc1)O2 (centres unmarked) [Example 88] | 40 to 69 |
| O=C(NC(=O)c1c(F)cccc1F)Nc1ccc2c(c1)COC(c1ccc(OC(F)(F)F)cc1)O2 (centres unmarked) [Example 91] | 40 to 69 |
| O=C(NC(=O)c1c(F)cccc1F)Nc1ccc2c(c1)CSC(c1ccccc1F)O2 (centres unmarked) [Example 96] | 40 to 69 |
| O=C(NC(=O)c1c(F)cccc1F)Nc1ccc2c(c1)CSC(c1ccc(Cl)cc1Cl)O2 (centres unmarked) [Example 98] | 40 to 69 |
| O=C(NC(=O)c1c(F)cccc1F)Nc1ccc2c(c1)CSC(c1c(Cl)cccc1Cl)O2 (centres unmarked) [Example 99] | 40 to 69 |
| O=C(NC(=O)c1c(F)cccc1F)Nc1ccc2c(c1)CSC(c1ccc(F)cc1F)O2 (centres unmarked) [Example 100] | 40 to 69 |
| Cc1ccc(C2Oc3ccc(NC(=O)NC(=O)c4c(F)cccc4F)cc3CS2)cc1 (centres unmarked) [Example 102] | 40 to 69 |
| O=C(NC(=O)c1c(F)cccc1F)Nc1ccc2c(c1)CSC(c1ccccc1C(F)(F)F)O2 (centres unmarked) [Example 103] | 40 to 69 |
| O=C(NC(=O)c1c(F)cccc1F)Nc1ccc2c(c1)CSC(c1ccccc1)O2 (centres unmarked) [Example 104] | 40 to 69 |
| O=C(NC(=O)c1c(F)cccc1F)Nc1ccc2c(c1)COC(c1ccccc1C(F)(F)F)S2 (centres unmarked) [Example 112] | 40 to 69 |
| O=C(NC(=O)c1c(F)cccc1F)Nc1ccc2c(c1)COC(c1c(Cl)cccc1Cl)S2 (centres unmarked) [Example 113] | 40 to 69 |
| O=C(NC(=O)c1c(F)cccc1F)Nc1ccc2c(c1)COC(c1ccccc1Br)S2 (centres unmarked) [Example 115] | 70 to 100 |
| Cc1ccccc1C1OCc2cc(NC(=O)NC(=O)c3c(F)cccc3F)ccc2S1 (centres unmarked) [Example 116] | 40 to 69 |
| O=C(NC(=O)c1c(F)cccc1F)Nc1ccc2c(c1)OC(c1ccccc1)O2 (centres unmarked) [Example 125] | 40 to 69 |
| O=C(NC(=O)c1c(F)cccc1F)Nc1ccc2c(c1)OC(c1ccccc1Cl)O2 (centres unmarked) [Example 126] | 40 to 69 |
| O=C(NC(=O)c1c(F)cccc1F)Nc1ccc2c(c1)OC(c1cccc(Cl)c1)O2 (centres unmarked) [Example 127] | 40 to 69 |
| O=C(NC(=O)c1c(F)cccc1F)Nc1ccc2c(c1)OC(c1ccc(Cl)cc1)O2 (centres unmarked) [Example 128] | 40 to 69 |
| O=C(NC(=O)c1c(F)cccc1F)Nc1ccc2c(c1)OC(c1ccc(F)cc1F)O2 (centres unmarked) [Example 135] | 40 to 69 |
| CCOC(=O)CC1(c2ccccc2)Oc2ccc(NC(=O)NC(=O)c3c(F)cccc3F)cc2O1 (centres unmarked) [Example 140] | 40 to 69 |
| O=C(NC(=O)c1c(F)cccc1F)Nc1ccc2c(c1)SC(c1ccccc1F)O2 (centres unmarked) [Example 143] | 40 to 69 |
| CC1(c2ccc(Cl)c(Cl)c2)Oc2ccc(NC(=O)NC(=O)c3c(F)cccc3F)cc2S1 (centres unmarked) [Example 152] | 40 to 69 |

test system: Tetranychus urticae; test: Acaricidal activity (mite life cycle), Tetranychus urticae; type: in vivo, Tetranychus urticae (glasshouse red spider mite); conditions: larvae on leaf discs sprayed at 340 liters per hectare; emergence of adults after 7 days
Protocol: Acaricidal activity of some compounds of formula I was assessed, employing adult female glasshouse red spider mites, Tetranychus urticae (T.u.), by the following procedure.
2 cm diameter leaf discs cut from the leaves of French bean plants were placed, underside uppermost, on 5.5 cm diameter filter papers, kept moist by a cotton wool wick dipped in water.
Each leaf disc was infested with 25 to 30 adult female mites which were removed after 6 hours, leaving bout 50 eggs on each disc. Within 5 days the eggs hatched. The freshly emerged larvae on the leaf discs were sprayed with solutions of test compound made up as in Example 156 above, at a rate equivalent to 340 liters per hectare (3.4×10^-5 m^3 /m^2).
The discs were thereafter kept under normal laboratory conditions (23° C.±2° C., fluctuating humidity and 16 hours day length). After 7 days assessment was made of the number of mites emerging as adults.

| Structure (SMILES) | LC50 (% active ingredient in spray) |
| --- | --- |
| O=C(NC(=O)c1c(F)cccc1F)Nc1ccc2c(c1)COC(c1ccc(Cl)cc1Cl)O2 (centres unmarked) [Example 82] | 0.00023 % active ingredient in spray |
| O=C(NC(=O)c1c(F)cccc1F)Nc1ccc2c(c1)COC(c1c(Cl)cccc1Cl)O2 (centres unmarked) [Example 84] | 0.00036 % active ingredient in spray |
| O=C(NC(=O)c1c(F)cccc1F)Nc1ccc2c(c1)COC(c1ccc(C(F)(F)F)cc1Cl)O2 (centres unmarked) [Example 85] | 0.00031 % active ingredient in spray |
| O=C(NC(=O)c1c(F)cccc1F)Nc1ccc2c(c1)COC(c1ccccc1Br)O2 (centres unmarked) [Example 87] | 0.0029 % active ingredient in spray |
| O=C(NC(=O)c1c(F)cccc1F)Nc1ccc2c(c1)COC(c1cccc(Cl)c1Cl)O2 (centres unmarked) [Example 92] | 0.085 % active ingredient in spray |
| O=C(NC(=O)c1c(F)cccc1F)Nc1ccc2c(c1)COC(c1ccccc1C(F)(F)F)O2 (centres unmarked) [Example 93] | 0.00022 % active ingredient in spray |
| O=C(NC(=O)c1c(F)cccc1F)Nc1ccc2c(c1)OC(c1ccc(C(F)(F)F)cc1)O2 (centres unmarked) [Example 134] | 0.09 % active ingredient in spray |
| O=C(NC(=O)c1c(F)cccc1F)Nc1ccc2c(c1)SC(c1ccc(Cl)cc1Cl)O2 (centres unmarked) [Example 142, N-[[[2-(2,4-dichlorophenyl)-1,3-benzoxathiol-5-yl]amino]carbonyl]-2,6-difluorobenzamide] | 0.0015 % active ingredient in spray |
| O=C(NC(=O)c1c(F)cccc1F)Nc1ccc2c(c1)SC(c1ccc(Cl)c(Cl)c1)O2 (centres unmarked) [Example 145] | 0.053 % active ingredient in spray |
| O=C(NC(=O)c1c(F)cccc1F)Nc1ccc2c(c1)SC(c1ccc(F)cc1F)O2 (centres unmarked) [Example 147] | 0.05 % active ingredient in spray |
